Literature values as cited in patent US8881894B2, “Multiple-compartment applicator” (Sonovia Holdings LLC, priority 2008, dated 2014).

Details: in water

## O=C1O[C@H]([C@@H](O)CO)C(O)=C1O [L-Ascorbic acid]
  pK of acid-ionizable hydrogen: 4.2
